What was measured:
[1] = system: stretched attend postures, BalbC/HSD mice; assay: Canopy test for anxiety: stretched attend postures (SAPs); assay type: in vivo, mouse; conditions: for % Reduction SAPs: i.v., mouse
Description: The purpose of the Canopy test is to investigate the potential of compounds of Formula I as effective treatments for anxiety by examining an integral component of the risk assessment repertoire of defensive behaviors, the stretched attend posture (SAPs). […] This behavior is investigatory, and is considered an important behavioral indicator of anxiety in mice (Grewal et al., 1997). In brief, mice are placed on an elevated circular platform with a covered space in the middle, and an open space surrounding the covered zone. The number of SAPs the animals makes when exploring this environment are measured.
Subjects: Male BalbC/HSD mice (Harlan Sprague Dawley) weighing approximately 20-25 g at the beginning of the experiment, were used. Animals were group housed 4-5 per cage, in standard shoebox cages and maintained on a 12:12 h light-dark cycle (lights on at 0600). All animals were allowed food and water ad libitum throughout the procedure.
Apparatus: The test apparatus is comprised of a black plexiglas circular platform (70 cm diameter) elevated 60 cm above the floor. A clear red plexiglas (translucent) ‘canopy’ (38 cm diameter) is supported 4 cm directly above the platform by a central pillar, effectively dividing the platform into an inner, covered zone (beneath the canopy) and an outer, exposed zone. The apparatus is illuminated by normal room lighting.
Procedure: On test days mice are transported in their home cage to the testing room which is free of noise/distraction and the mice are injected with the compound of choice, prior to testing. For the KCNQ compounds, when administered IV, pretreatment time is 15 minutes. For oral administration, pretreatment time is 1 hour. Following the pretreatment, the animal is placed in the covered zone of the platform, always oriented in the same direction, facing the pillar. For 5 minutes the animals are allowed to freely explore the apparatus. The dependent variable is the number of Stretched Attend Postures, which are scored by an observer blind to treatment condition. Data were analyzed by an overall analysis of variance followed by Dunnett's post hoc tests. An effect was considered significant if p<0.05.
All test compounds are administered in a volume of 10 ml/kg. Vehicle and buspirone (as the positive control) treated mice were run with each experiment, and buspirone was dissolved in the same vehicle as used per each compound. Compounds of Formula I were administered IV, in a vehicle containing 10% PEG400/5% Tween/85% water, warmed on a hot plate.

[2] = system: nerve injury-induced tactile allodynia (L5/L6 ligation), Sprague Dawley rats; assay: Chung model of neuropathic pain (Chung surgery and von Frey test); assay type: in vivo, rat; conditions: i.v., von Frey thresholds over 90 min
Experimental: To test agents for activity against peripheral mononeuropathy nerve injury-induced tactile allodynia, male Sprague Dawley rats (wt. 120-160 g) were surgically prepared with unilateral tight ligation of spinal nerves L5 and L6 following the method of Kim and Chung (Kim S. H., Chung J. M. (1992) Pain, September;50(3):355-63). After 3-4 weeks recovery, paw withdrawal to light touch was assessed as described by Chaplan et al. (Chaplan S. R., et al., (1994) J. Neurosci Methods, July;53(1):55-63). In brief, rats are placed in a plastic cage with a wire mesh bottom and allowed to acclimate for 15-30 minutes, until cage exploration and grooming stops. The plantar surface of each hind paw is touched with a series of von Frey hairs with varying stiffness requiring a known force to buckle to determine the nociceptive threshold. Adult male Sprague Dawley rats (avg. wt. 340 g) were tested in the present study. After acclimation, baseline von Frey thresholds were assessed for the injured hindpaw at −15 min. All test compounds were delivered at 0 min by the intravenous (i.v.) route in a volume of 0.5-2 ml/kg. The vehicle for test compounds was 100% PEG-400. For gabapentin the vehicle was deionized H2O. Animals were tested in one of the following 4 treatment conditions: (a) PEG400, (b) gabapentin (Neurontin) 100 mg/kg, (c) test compounds 3 mg/kg and (d) test compounds 10 mg/kg. Following drug administration, von Frey thresholds are measured at 15, 30, 60 and 90 min. Data were analyzed by a 2-way repeated measures analysis of variance followed by Dunnett's test (p<0.05). Experimenters were kept blind to the treatment condition of rats they tested.
Reversal of neuropathic pain behavior may be expressed as a percentage (0-100%) of the maximum possible effect, over and above the vehicle effects. Specifically, drug effects can be described in terms Δ% MPE according to the following equation: [formula]
AUCdrug=area under the curve for von Frey thresholds of the drug-treated group;
AUCvehicle=area under the curve for von Frey thresholds in the vehicle group;
Time=duration of post-drug testing period (90 min); and
Max=maximum von Frey threshold (15 g).
For example, a compound which immediately reversed neuropathic pain behavior to normal levels, such that animals only responded to the highest von Frey filament (15 g), and maintained normal levels through out the post-drug testing period (90 min) would be calculated as Δ% MPE=100%.

[3] = system: cortical spreading depression (KCl application), Long-Evans rats; assay: In vivo electrophysiology: number of cortical spreading depressions produced by KCl application; conditions: 1 mg/kg, i.v., 15 min prior to KCl; rat
Description: Male Long-Evans rats (300-450 g) were used in the present studies (Harlan). Rats were anesthetized with urethane anesthesia (1.2 g/kg i.p.) and placed in a stereotaxic frame. Under anesthesia a Silastic catheter was placed in the jugular vein of the rats. The skull was exposed using a scalpel. A small hole (approximately 2 mm by 3 mm) was drilled in to the skull rostral to the lambdoid suture using a microdrill and steel burr. The dura was disrupted and a drop of mineral oil was placed in this hole to prevent dehydration of the underlying cortex. Ultimately this hole was used for the application of crystalline KCl (described below).
Two additional holes were place in the skull unilaterally at 4 and 8 mm rostral to the application hole. Silver wire electrodes were placed in these latter holes and secured to the skull using acrylic cement. A similar silver wire electrode was sutured to the nuchal muscle to serve as a reference electrode. Electrical DC recordings were obtained using a standard differential amplifier (Warner, DP-304) and commercially available data acquisition equipment (Cambridge Electronic Design, 1401 A-D converter and Spike2 software).
All experimental procedures were conducted while the rats were maintained under anesthesia. Rats were injected with test compound, valproic acid or vehicle (100% PEG-400) 15 min prior to the application of crystalline KCl to the application site described above. All injections were given via the jugular vein at a volume of ≦0.5 ml/kg. Only one treatment was tested per animal. The effect of valproic acid was also determined in this study due to the fact that Depakote™ (divalproex sodium) is one of only three drugs currently indicated for the prophylatic treatment of migraine headache. Valproic acid (30-200 mg/kg i.v.) was obtained from Sigma Chemical Company and was dissolved in a vehicle of isotonic saline.
KCl was applied to the application site for 10 min and was then removed using a saline soaked cotton swab. Mineral oil was subsequently reapplied to the application site. Typically, this application produced a long-lasting series of spreading depressions. The number of spreading depressions produced by this KCl application was the primary measure used to access the effectiveness of compounds in this assay.
Data were analyzed using analyses of variance followed by the Dunnett post-hoc test for pairwise comparisons, when appropriate. A difference was considered significant when p≦0.05.
The effect of representative compounds of Formula I on spreading depression is expressed as the percent reduction from vehicle control and is listed in Table 3.

Row | SMILES | % Reduction SAPs ([1]; 1.25 mg/kg) | AUC (Δ% MPE) ([2]; 3 mg/kg) | % Reduction (number of spreading depressions, from vehicle control) [3] | % Reduction SAPs ([1]; 30 mg/kg) | Stretched attend postures, percent of vehicle control ([1]; separate experiments with a vehicle control, dose not given) | AUC (Δ% MPE) ([2]; 10 mg/kg) | % Reduction SAPs ([1]; 10 mg/kg)
1 | C[C@H](NC(=O)/C=C/c1ccc(F)cc1)c1ccc2ccccc2c1 [Example 1, (S)-3-(4-Fluoro-phenyl)-N-(1-naphthalen-2-yl-ethyl)acrylamide] | 44 (1.25 mg/kg, iv.) % | 8 (3 mg/kg, i.v.) Δ% MPE | 25 (1 mg/kg, i.v.) % |  |  |  | 
2 | C[C@H](NC(=O)/C=C/c1ccccc1)c1cccc(N2CCOCC2)c1 [Example 82, (S)-3-Phenyl-N-[1-(3-morpholin-4-yl-phenyl)ethyl]acrylamide] |  |  | 27 (1 mg/kg, i.v.) % | 28 (30 mg/kg, i.v.) % | 75 % of vehicle control | 25 (10 mg/kg, i.v.) Δ% MPE | 
3 | C[C@H](NC(=O)/C=C/c1ccc(F)cc1)c1ccc(F)c(N2CCOCC2)c1 [Example 169, (S)-N-[1-(4-Fluoro-3-morpholin-4-yl-phenyl)-ethyl]-3-(4-fluoro-phenyl)-acrylamide] |  |  | 25 (1 mg/kg, i.v.) % |  |  | 31 (10 mg/kg,i.v.) Δ% MPE | 18 (10 mg/kg, i.v.) %

— patent US6831080B2, “Cinnamide derivatives as KCNQ potassium channel modulators” (Bristol-Myers Squibb Company, priority 2001, dated 2004)
